Tests used:
[1] = test system: A375 human malignant melanoma; experiment: Cell proliferation assay, A375; assay type: cell-based; conditions: A-375, A375, 72h exposure, CellTiter-Glo, read-out: EC50 in the cell proliferation assay, A375 cell line
Procedure: (§1) Compounds are tested in a cell proliferation assay using the following cell lines:
(§2) A375 human malignant melanoma (ATCC)
(§3) Both cell lines are maintained in DMEM/F12 (1:1) media (Gibco) supplemented with 10% FCS at 37° C. in a 5% CO2 humidified incubator.
(§4) Cells are seeded in 96-well plates at 2,000 cells/well and after 24 hours they are exposed to different concentrations of compounds in 0.83% DMSO. Cells are grown for a further 72h, and an equal volume of CellTiter-Glo reagent (Promega) is added to each well. This lyses the cells and generates a luminescent signal proportional to the amount of ATP released (and therefore proportional to the number of cells in the well) that can be detected using a multi-well luminometer.
(§5) The EC50 is defined as the concentration at which a given compound achieves 50% inhibition of control. IC50 values are calculated using the XLfit software package (version 2.0.5).

[2] = test system: HCT116 human colorectal carcinoma; experiment: Cell proliferation assay, HCT116; assay type: cell-based; conditions: HCT-116, HCT116, 72h exposure, CellTiter-Glo, read-out: EC50 in the cell proliferation assay, HCT116 cell line
Procedure: as §1
(§6) HCT116 human colorectal carcinoma (ATCC)
as §3, §4, §5

[3] = test system: phospho-ERK in HCT116 human colorectal carcinoma; experiment: Phospho-ERK cell-based assay, HCT116; conditions: HCT-116, HCT116, 2 h or 24 h exposure, p-ERK signal normalised to PI, read-out: EC50 in the phospho-ERK cell-based assay, HCT116 cell line
Procedure: (§7) Compounds are tested in a cell-based phospho-ERK ELISA using the following cell lines:
as §6, §3
(§8) Cells are seeded in 96-well plates at 2,000 cells/well and after 24 h they are exposed to different concentrations of compounds in 0.83% DMSO. Cells are grown for a further 2 h or 24 h, fixed with formaldehyde (2% final) and permeabilised with methanol. Following blocking with TBST-3% BSA, fixed cells are incubated with primary antibody (anti-phospho ERK from rabbit) over-night at 4° C. Cells are incubated with Propidium Iodide (DNA fluorescent dye) and detection of cellular p-ERK is performed using an anti-rabbit secondary antibody conjugated to the fluorescent Alexa Fluor 488 dye (Molecular probes). The fluorescence is analysed using the Acumen Explorer (TTP Labtech), a laser-scanning microplate cytometer, and the Alexa Fluor 488 signal is normalised to the PI signal (proportional to cell number).
(§9) The EC50 is defined as the concentration at which a given compound achieves a signal half way between the baseline and the maximum response. EC50 values are calculated using the XLfit software package (version 2.0.5).

[4] = test system: phospho-ERK in A375 human malignant melanoma; experiment: Phospho-ERK cell-based assay, A375; conditions: A-375, A375, 2 h or 24 h exposure, p-ERK signal normalised to PI, read-out: EC50 in the phospho-ERK cell-based assay, A375 cell line
Procedure: as §7, §2, §3, §8, §9

EC50 [1] | EC50 [2] | Compound | EC50 [3] | EC50 [4]
< 100 nM | < 500 nM | O=C(NOC[C@H](O)CO)c1ccc2[nH]ncc2c1Nc1ccc(I)cc1F [Example 9, 4-(2-Fluoro-4-iodophenylamino)-1H-indazole-5-carboxylic acid ((R)-2,3-dihydroxy-propoxy)-amide] | < 100 nM | < 100 nM
– | – | O=C(NOCC1CC1)c1ccc2[nH]ncc2c1Nc1ccc(I)cc1F [Example 16, 4-(2-Fluoro-4-iodo-phenylamino)-1H-indazole-5-carboxylic acid cyclopropylmethoxy-amide] | < 100 nM | –
< 100 nM | – | O=C(NOC[C@H](O)CO)c1ccc2cnsc2c1Nc1ccc(C2CC2)cc1F [Example 23, 7-(4-Cyclopropyl-2-fluoro-phenylamino)-benzo[d]isothiazole-6-carboxylic acid ((R)-2,3-dihydroxy-propoxy)-amide] | – | < 100 nM
< 100 nM | < 500 nM | O=C(NOCCO)c1ccc2cnsc2c1Nc1ccc(Br)cc1F [Example 25, 7-(4-Bromo-2-fluoro-phenylamino)-benzo[d]isothiazole-6-carboxylic acid (2-hydroxy-ethoxy)-amide] | < 100 nM | < 100 nM
< 100 nM | < 500 nM | CSc1ccc(Nc2c(C(=O)NOC[C@H](O)CO)ccc3cnsc23)c(F)c1 [Example 22, 7-(2-Fluoro-4-methylsulfanyl-phenylamino)-benzo[d]isothiazole-6-carboxylic acid ((R)-2,3-dihydroxy-propoxy)-amide] | < 100 nM | < 100 nM
< 100 nM | < 500 nM | O=C(NOCCO)c1cnc2[nH]ncc2c1Nc1ccc(I)cc1F [Example 6, 4-(2-Fluoro-4-iodophenylamino)-1H-pyrazolo[3,4-b]pyridine 5-carboxylic acid (2-hydroxyethoxy)-amide] | < 100 nM | < 100 nM
< 100 nM | < 500 nM | CONC(=O)c1ccc2[nH]ncc2c1Nc1ccc(I)cc1F [Example 17, 4-(2-Fluoro-4-iodo-phenylamino)-1H-indazole-5-carboxylic acid methoxy-amide] | < 100 nM | < 100 nM
< 100 nM | < 500 nM | O=C(NOCCO)c1ccc2[nH]ncc2c1Nc1ccc(I)cc1F [Example 5, 4-(2-Fluoro-4-iodo-phenylamino)-1H-indazole-5-carboxylic acid (2-hydroxy-ethoxy)-amide] | < 100 nM | –
< 100 nM | < 500 nM | O=C(NOCCO)c1ccc2[nH]ncc2c1Nc1ccc(Br)cc1F [Example 10, 4-(4-Bromo-2-fluoro-phenylamino)-1H-indazole-5-carboxylic acid (2-hydroxy-ethoxy)-amide] | < 100 nM | < 100 nM
< 100 nM | < 500 nM | O=C(NOC[C@H](O)CO)c1ccc2sncc2c1Nc1ccc(I)cc1F [Example 21, 4-(2-Fluoro-4-iodo-phenylamino)-benzo[d]isothiazole-5-carboxylic acid ((R)-2,3-dihydroxy-propoxy)-amide] | < 100 nM | < 100 nM
< 100 nM | < 500 nM | C[C@H](O)CONC(=O)c1ccc2[nH]ncc2c1Nc1ccc(Br)cc1F [Example 11, 4-(4-Bromo-2-fluoro-phenylamino)-1H-indazole-5-carboxylic acid ((S)-2-hydroxy-propoxy)-amide] | < 100 nM | < 100 nM
< 100 nM | < 500 nM | CCONC(=O)c1ccc2[nH]ncc2c1Nc1ccc(I)cc1F [Example 14, 4-(2-Fluoro-4-iodo-phenylamino)-1H-indazole-5-carboxylic acid ethoxy-amide] | < 100 nM | < 100 nM
< 100 nM | < 500 nM | O=C(NOCCO)c1ccc2sncc2c1Nc1ccc(I)cc1F [Example 12, 4-(2-Fluoro-4-iodo-phenylamino)-benzo[d]isothiazole-5-carboxylic acid (2-hydroxy-ethoxy)-amide] | < 100 nM | < 100 nM
< 100 nM | < 500 nM | O=C(NOC[C@H](O)CO)c1ccc2cnsc2c1Nc1ccc(Br)cc1F [Example 24, 7-(4-Bromo-2-fluoro-phenylamino)-benzo[d]isothiazole-6-carboxylic acid ((R)-2,3-dihydroxy-propoxy)-amide] | < 100 nM | < 100 nM
< 100 nM | < 600 nM | CC(C)(CO)ONC(=O)c1cnc2[nH]ncc2c1Nc1ccc(I)cc1F [Example 8, 4-(2-Fluoro-4-iodophenylamino)-1H-pyrazolo[3,4-b]pyridine-5-carboxylic acid (2-hydroxy-1,1-dimethylethoxy)-amide] | < 100 nM | < 100 nM
< 100 nM | < 500 nM | O=C(NOC[C@H](O)CO)c1ccc2cnsc2c1Nc1ccc(I)cc1F [Example 27, 7-(2-Fluoro-4-iodo-phenylamino)-benzo[d]isothiazole-6-carboxylic acid ((R)-2,3-dihydroxy-propoxy)amide] | < 100 nM | < 100 nM
– | – | O=C(NOCCO)c1ccc2cnsc2c1Nc1ccc(I)cc1F [Example 26, 7-(2-Fluoro-4-iodo-phenylamino)-benzo[d]isothiazole-6-carboxylic acid (2-hydroxy-ethoxy)-amide] | < 100 nM | < 100 nM
< 100 nM | < 500 nM | C[C@H](O)CONC(=O)c1ccc2sncc2c1Nc1ccc(I)cc1F [Example 20, 4-(2-Fluoro-4-iodo-phenylamino)-benzo[d]isothiazole-5-carboxylic acid ((S)-2-hydroxy-propoxy)-amide] | < 100 nM | < 100 nM
– | < 500 nM | CSc1ccc(Nc2c(C(=O)NOCCO)ccc3[nH]ncc23)c(F)c1 [Example 13, 4-(2-Fluoro-4-methylsulfanyl-phenylamino)-1H-indazole-5-carboxylic acid (2-hydroxy-ethoxy)-amide] | < 100 nM | –
< 100 nM | < 500 nM | C[C@H](O)CONC(=O)c1cnc2[nH]ncc2c1Nc1ccc(I)cc1F [Example 7, 4-(2-Fluoro-4-iodophenylamino)-1H-pyrazolo[3,4-b]pyridine 5-carboxylic acid ((S)-2-hydroxypropoxy)-amide] | < 100 nM | < 100 nM
